US8575375B2, “Androstane and pregnane steroids with potent allosteric GABA receptor chloride ionophore modulating properties” (Research Triangle Institute, priority 2007, dated 2013)

Assays:
[1] = system: pentylenetetrazole (PTZ) induced seizures; assay: PTZ seizure test; type: in vivo; settings: FIG. 3; mice
Protocol: (§1) Male NIH Swiss mice (25-30 g) were housed two per cage. Animals were kept in a vivarium (temperature 22-26° C.; humidity 40-50%) with an artificial 12-h light/dark cycle and free access to food and water. Animals were allowed to acclimate to the vivarium for at least 5 days. The experiments were performed during the light phase of the light/dark cycle (between 9:30 AM and 3:30 PM), after at least a 30-min period of acclimation to the experimental room. Animals were maintained in facilities fully accredited by the Association for Assessment and Accreditation of Laboratory Animal Care, and experiments were performed under protocols approved by the Animal Care and Use Committee of the National Institute of Neurological Disorders and Stroke in strict compliance with the Guide for the Care and Use of Laboratory Animals of the National Research Council (National Academy Press, Washington, D.C.
(§2) Solutions of the steroids were made fresh daily in 40% hydroxypropyl-β-cyclodextrin in sterile 0.9% saline. Further dilutions were made using sterile saline. The steroids were injected intraperitoneally. The convulsant agent pentylenetetrazol (PTZ; Sigma-Aldrich) was dissolved in saline immediately before use. […]
The PTZ seizure test was carried out as described (Kokate et al., 1994). […] Mice failing to show clonic seizures lasting longer than 5 s were scored as protected. […]

[2] = system: electrically (6 Hz) induced seizures; assay: 6-Hz seizure test; type: in vivo; settings: FIG. 3; mice
Protocol: as §1
as §2, with “use. All drug solutions were administered in a volume equaling 0.01 mL/g of the animal's body weight.” for “use.”

GABAA receptor [3] = assay: [35S]TBPS binding assay in rat brain cerebral cortex homogenates; settings: rat cortical membranes, 6.25 μM GABA, 2 nM [35S]TBPS; mean±SD
Protocol: (§3) Tissue preparation. Rat brain cerebral cortex homogenates and the binding assays were conducted essentially as described (Carter et al., 1997). Briefly, adult male Sprague-Dawley rats (Charles River Laboratories, Raleigh, N.C.) were killed by excess CO2 asphyxiation, decapitated, and their brain rapidly removed and frozen on dry ice before being stored −76° C. The frozen cortices were placed in 10 volumes of an ice-cold 0.32 M sucrose solution and homogenized with a Teflon-glass homogenizer. The homogenate was centrifuged at 1500×g (10 min at 4° C.). The supernatant was retained and centrifuged at 10,000×g (20 min at 4° C.), yielding the P2 pellet. The P2 pellet was resuspended in an equal volume of a 50 mM Na+/K+ phosphate buffer containing 200 mM NaCl (pH 7.4) and centrifuged at 10,000×g (10 min at 4° C.). The pellet was washed twice more, resuspended in 1/10 volume of buffer and stored at −76° C. until the time of assay.
[^35S]TBPS binding assays. These assays were carried out in 1.4 mL polypropylene tubes (Matrix Technologies, Hudson, N.H.). In a final volume of 0.5 mL, each tube contained 100 μL cortical membrane suspension (40 μg of protein, added last) 2 nM [^35S]TBPS (64-165 Ci/mmol), 6.25 μM GABA and one of six different concentrations of test compound added as 5 μL in 100% DMSO (1% final DMSO concentration). The test compounds were added to the assay tubes using a BiomekFX automated liquid handler with 96-well head (Beckman-Coulter, Fullerton, Calif.). Nonspecific binding was determined in the presence of 200 μM picrotoxin. The assays were incubated for 2 h at RT before being terminated by vacuum filtration through 96-well GF/B glass filter plates using a 96-well harvester (Brandel Scientific, Gaithersburg, Md.). Prior to harvesting, the filter plates were pre-soaked for 20 min in buffer containing 0.15% BSA and 0.1% PEI. The radioactivity remaining on the filter was determined in a TopCount 12-detector scintillation counter (Packard Instruments, Meriden, Conn.) using 20 μl of MicroScint20 (Packard Instruments) per well and standard liquid scintillation counting techniques.

GABAA receptor [4] = assay: [3H]Flunitrazepam binding assay (enhancement) in rat brain cerebral cortex homogenates; settings: for [3H]Flunitrazepam Emax: percentage of Emax determined for allopregnanolone; for EC50: rat cortical membranes, 1.0 μM GABA, 1.0 nM [3H]flunitrazepam, mean±SD
Protocol: as §3
[^3H]Flunitrazepam binding assay. This assay was conducted as described for the [^35S]TBPS assay except that the assays contained 20 μg tissue homogenate, 1.0 μM GABA and 1.0 nM [^3H]flunitrazepam (74.1-85 Ci/mmol). Clonazepam (1.0 μM) was used to determine nonspecific binding.

[5] = system: elevated zero maze behaviour; assay: Elevated zero maze test of anxiolytic activity; type: in vivo; settings: therapeutic doses, mice
Protocol: as §1, with “D.C. […]” for “D.C.”
Anxiolytic activity was assessed with the elevated zero-maze as described (Kaminski et al., 2006). […] Five-min test sessions were video-recorded with a tripod-mounted camcorder. Percent time in open areas and number of entries into open areas were scored from the taped records using Observer 3.0 software (Noldus, Wageningen, The Netherlands). […] Dose-response data were analyzed by one-way analysis of variance. […]

Row | SMILES | reduction of chemically (PTZ) induced seizures [1] | reduction of electrically (6 Hz) induced seizures [2] | IC50 (GABAA receptor [3]) [nM] | [3H]Flunitrazepam Emax (GABAA receptor [4]) [%] | EC50 (GABAA receptor [4]) [nM] | percentage of time spent in open arms of the maze ([5]; FIG. 1A) | number of entries (open arms) ([5]; FIG. 1B) | melting point
1 | C[C@]12CC[C@@H](O)C[C@@H]1CC[C@@H]1[C@@H]2CC[C@]2(C)[C@@H]([N+](=O)[O-])CC[C@@H]12 [Compound A2-A, 17β-Nitro-5α-androstan-3α-ol] | reduce | reduce | 13 ± 0.13 | 103 | 24 ± 2.5 | significantly enhanced | significantly enhanced | 
2 | CS[C@H]1CCC2C3CC[C@H]4C[C@H](O)CC[C@]4(C)C3CC[C@@]21C (stereo partly drawn) [Compound B-5, 3α-Hydroxy-17β-thiomethyl-5α-androstane] |  |  | 32 ± 5.19 | 131.7 | 75.9 ± 12.4 |  |  | 151 to 153 °C
3 | CN(C)c1ccc([C@H]2C[C@@]3(C)C(CC[C@@H]3[N+](=O)[O-])C3CC[C@H]4C[C@](C)(O)CCC4C32)cc1 (stereo partly drawn) [Compound C-8, 11β-[4-(N,N-Dimethylamino)phenyl]-3α-hydroxy-3β-methyl-5α-17β-nitro-estrane] |  |  | 9.79 ± 1.93 | 135 | 39.5 ± 20.6 |  |  | 
4 | C[C@@]1(O)CC[C@@]2(C)[C@@H](CC[C@@H]3[C@@H]2CC[C@]2(C)[C@@H]([N+](=O)[O-])CC[C@@H]32)C1 [Compound A2-B, 3α-Hydroxy-3β-methyl-17β-nitro-5α-androstane] |  |  | 17.9 ± 6.19 | 99.1 | 33.5 ± 4.9 |  |  | 211 to 213 °C
5 | CN(C)c1ccc([C@H]2C[C@]3(C)[C@@H](O)CC[C@H]3[C@@H]3CC[C@H]4C[C@](C)(O)CC[C@@H]4[C@H]32)cc1.Cl |  |  |  |  |  |  |  | 230 to 232 °C (dec.)
